Source: patent US9845319B2, “Amide substituted thiazoles as modulators of RORyt” (Janssen Pharmaceutica NV, priority 2014, dated 2017)

How the values were obtained:
[1] = target: T1, human RORγt ligand binding domain (RORγt LBD) (Homo sapiens, UniProt P51449); assay: RORγt ThermoFluor assay; conditions: estimated from thermal shift concentration response
T1 construct: His-tag (N); TurboTEV protease cleavage site (ENLYFQG) (N); made in house; host or cells: E. coli (pHIS1, a modified pET expression vector)
T1 sequence (P51449 with tags, fused parts or gaps): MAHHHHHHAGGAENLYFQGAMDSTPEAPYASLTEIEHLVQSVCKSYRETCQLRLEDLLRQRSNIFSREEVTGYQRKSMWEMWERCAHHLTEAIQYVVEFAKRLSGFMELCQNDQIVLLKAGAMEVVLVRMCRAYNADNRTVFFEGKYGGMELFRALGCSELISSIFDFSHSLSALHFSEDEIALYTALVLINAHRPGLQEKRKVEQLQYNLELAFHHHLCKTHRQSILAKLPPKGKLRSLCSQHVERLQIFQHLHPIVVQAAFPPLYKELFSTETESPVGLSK
Experimental: This approach is applicable to a wide variety of systems, and rigorous in theoretical interpretation through quantitation of equilibrium binding constants (KD).
The shift in the melting point described as a ΔTm is proportional to the concentration and affinity of the ligand.
Protein and compound solutions are dispensed into black 384-well polypropylene PCR microplates (Abgene) and overlayed with silicone oil (1 μL, Fluka, type DC 200) to prevent evaporation.
Bar-coded assay plates are robotically loaded onto a thermostatically controlled PCR-type thermal block and then heated at a typical ramp-rate of 1° C./min for all experiments.
Fluorescence was measured by continuous illumination with UV light (Hamamatsu LC6) supplied via fiber optic and filtered through a band-pass filter (380-400 nm; >6 OD cutoff). Fluorescence emission of the entire 384-well plate was detected by measuring light intensity using a CCD camera (Sensys, Roper Scientific) filtered to detect 500±25 nm, resulting in simultaneous and independent readings of all 384 wells. Images were collected at each temperature, and the sum of the pixel intensity in a given area of the assay plate was recorded versus temperature. Reference wells contained RORγt without compounds, and the assay conditions were as follows: • 0.065 mg/mL RORγt • 60 μM 1,8-ANS • 100 mM Hepes, pH 7.0 • 10 mM NaCl • 2.5 mM GSH • 0.002% Tween-20
Project compounds were arranged in a pre-dosed mother plate (Greiner Bio-one) wherein compounds are serially diluted in 100% DMSO by 1:2 from a high concentration of 10 mM over 12 columns within a series (column 12 is a reference well containing DMSO, no compound). The compounds were robotically dispensed directly into assay plates (1×=46 nL) using a Hummingbird capillary liquid handling instrument (Digilab). Following compound dispense, protein and dye in buffer was added to achieve the final assay volume of 3 μL, followed by 1 μL of silicone oil.

[2] = target: T2, full-length human RORγt (Homo sapiens, UniProt P51449); assay: RORγt (full-length human) Reporter Assay, Conditions A; type: cell-based; conditions: for IC50: HEK293T cells, GAL4-DBD-RORγt, luciferase, read-out: RORγt (FL) Reporter Assay A, IC50; for inhibition at 6 µM: read-out: RORγt (FL) Reporter Assay A, % inhibition @ 6 μM, 6 μM compound; for inhibition at 2 µM: read-out: RORγt (FL) Reporter Assay A, % inhibition (* at 2 μM), 2 μM compound concentration (footnote *)
T2 construct: expressed in transfected cells; host or cells: HEK293T, transiently transfected with pCMV-BD-ROR
T2 sequence (P51449 1-497 isoform P51449-2): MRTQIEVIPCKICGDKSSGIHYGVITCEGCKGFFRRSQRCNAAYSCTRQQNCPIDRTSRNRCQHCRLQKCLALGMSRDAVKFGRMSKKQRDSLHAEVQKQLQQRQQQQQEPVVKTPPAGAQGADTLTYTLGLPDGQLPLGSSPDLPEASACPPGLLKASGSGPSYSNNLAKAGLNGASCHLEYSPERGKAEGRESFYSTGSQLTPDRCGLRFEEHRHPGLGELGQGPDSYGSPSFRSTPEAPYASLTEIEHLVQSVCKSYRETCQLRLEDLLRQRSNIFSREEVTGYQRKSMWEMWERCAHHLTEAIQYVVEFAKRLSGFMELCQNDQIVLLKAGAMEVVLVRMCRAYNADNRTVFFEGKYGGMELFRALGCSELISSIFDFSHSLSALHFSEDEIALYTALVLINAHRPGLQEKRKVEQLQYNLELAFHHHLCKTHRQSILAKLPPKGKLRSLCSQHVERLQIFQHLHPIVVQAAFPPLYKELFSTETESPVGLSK
Experimental: After overnight (16 to 20 hours) incubation, media were removed and cells were lysed with 20 μL 1× Passive Lysis Buffer (Promega) for 10-15 minutes. Luminescence was measured using a BMG LUMIstar OPTIMA plate reader, after addition of 75 μL/well firefly luciferase buffer, followed by 75 μL/well Renilla luciferase buffer. To calculate the effect of compounds on RORγt activity, firefly values were normalized against values of DMSO only and values of reference compound at saturating concentration, then further normalized against Renilla signals. IC50s were generated by plotting final Renilla normalized data against compound concentration and percent inhibition was calculated against DMSO control.

Kd [1] | IC50 [2] | inhibition at 6 µM [2] | inhibition at 2 µM [2] | inhibition at 0.22 µM ([2]; 0.22 μM compound concentration (footnote ***), read-out: RORγt (FL) Reporter Assay A, % inhibition (*** at 0.22 μM)) | inhibition at 0.67 µM ([2]; 0.67 μM compound concentration, read-out: RORγt (FL) Reporter Assay A, % inhibition (** at 0.67 μM)) | SMILES
6.3 nM | 23 nM | 101% | – | – | – | CCN(CC(F)(F)F)C(=O)c1nc(-c2nnc(C(C)(C)O)o2)sc1-c1ccc(S(=O)(=O)N[C@@H](C)C(F)(F)F)c(Cl)c1Cl [Example 4/6, (S)-5-(2,3-Dichloro-4-(N-(1,1,1-trifluoropropan-2-yl)sulfamoyl)phenyl)-N-ethyl-2-(5-(2-hydroxypropan-2-yl)-1,3,4-oxadiazol-2-yl)-N-(2,2,2-trifluoroethyl)thiazole-4-carboxamide]
4.5 nM | 30 nM | 108% | – | – | – | CCCN(CC)C(=O)c1nc(-c2nnc(C(C)(C)O)o2)sc1-c1ccc(S(=O)(=O)N[C@@H](C)C(F)(F)F)c(Cl)c1Cl [Example 6/8, (S)-5-(2,3-Dichloro-4-(N-(1,1,1-trifluoropropan-2-yl)sulfamoyl)phenyl)-N-ethyl-2-(5-(2-hydroxypropan-2-yl)-1,3,4-oxadiazol-2-yl)-N-propylthiazole-4-carboxamide]
0.71 nM | 28 nM | – | 104% | – | – | C[C@H](NS(=O)(=O)c1ccc(-c2sc(-c3nnc(C(C)(C)O)[nH]3)nc2C(=O)N2CC(F)(F)C[C@@H]2C)c(Cl)c1Cl)C(F)(F)F [Example 9/2, 2,3-Dichloro-4-(4-((S)-4,4-difluoro-2-methylpyrrolidine-1-carbonyl)-2-(5-(2-hydroxypropan-2-yl)-4H-1,2,4-triazol-3-yl)thiazol-5-yl)-N—((S)-1,1,1-trifluoropropan-2-yl)benzenesulfonamide]
5.6 nM | 61 nM | 108% | – | – | – | C[C@H](NS(=O)(=O)c1ccc(-c2sc(-c3nnc(C(C)(C)O)o3)nc2C(=O)N2CCC(F)(F)CC2)c(Cl)c1F)C(F)(F)F [Example 8/1, (S)-3-Chloro-4-(4-(4,4-difluoropiperidine-1-carbonyl)-2-(5-(2-hydroxypropan-2-yl)-1,3,4-oxadiazol-2-yl)thiazol-5-yl)-2-fluoro-N-(1,1,1-trifluoropropan-2-yl)benzenesulfonamide]
37 nM | 170 nM | 106% | – | – | – | CC1CCN(C(=O)c2nc(-c3nnc(C(N)=O)o3)sc2-c2ccc(S(=O)(=O)N[C@@H](C)C(F)(F)F)c3ccccc23)CC1 [Example 5, (S)-5-(4-(4-Methylpiperidine-1-carbonyl)-5-(4-(N-(1,1,1-trifluoropropan-2-yl)sulfamoyl)naphthalen-1-yl)thiazol-2-yl)-1,3,4-oxadiazole-2-carboxamide]
290 nM | 120 nM | 102% | – | – | – | CCN(CC)C(=O)c1nc(-c2nnc(C)o2)sc1-c1ccc(S(=O)(=O)N[C@@H](C)C(F)(F)F)c(Cl)c1Cl [Example 7, (S)-5-(2,3-Dichloro-4-(N-(1,1,1-trifluoropropan-2-yl)sulfamoyl)phenyl)-N,N-diethyl-2-(5-methyl-1,3,4-oxadiazol-2-yl)thiazole-4-carboxamide]
16 nM | 57 nM | 109% | – | – | – | C[C@H](NS(=O)(=O)c1ccc(-c2sc(-c3nnc(CC(C)(C)O)o3)nc2C(=O)N2CCC(F)(F)C2)c(Cl)c1Cl)C(F)(F)F [Example 3/1, (S)-2,3-Dichloro-4-(4-(3,3-difluoropyrrolidine-1-carbonyl)-2-(5-(2-hydroxy-2-methylpropyl)-1,3,4-oxadiazol-2-yl)thiazol-5-yl)-N-(1,1,1-trifluoropropan-2-yl)benzenesulfonamide]

Continued, compound first:

SMILES | Kd [1] | IC50 [2] | inhibition at 6 µM [2] | inhibition at 2 µM [2] | inhibition at 0.22 µM ([2]; 0.22 μM compound concentration (footnote ***), read-out: RORγt (FL) Reporter Assay A, % inhibition (*** at 0.22 μM)) | inhibition at 0.67 µM ([2]; 0.67 μM compound concentration, read-out: RORγt (FL) Reporter Assay A, % inhibition (** at 0.67 μM))
Cc1c(S(=O)(=O)N[C@@H](C)C(F)(F)F)ccc(-c2sc(-c3nnc(C(C)(C)O)o3)nc2C(=O)N2CCC(F)(F)CC2)c1F [Example 26, 4-(4-(4,4-Difluoropiperidine-1-carbonyl)-2-(5-(2-hydroxypropan-2-yl)-1,3,4-oxadiazol-2-yl)thiazol-5-yl)-3-fluoro-2-methyl-N—((S)-1,1,1-trifluoropropan-2-yl)benzenesulfonamide] | 5 nM | 86 nM | 107% | – | – | –
CC[C@H](NS(=O)(=O)c1ccc(-c2sc(-c3nnc(C(C)(C)O)o3)nc2C(=O)N(CC)CC)c(Cl)c1F)C(F)(F)F [Example 6/20, (S)-5-(2-Chloro-3-fluoro-4-(N-(1,1,1-trifluorobutan-2-yl)sulfamoyl)phenyl)-N,N-diethyl-2-(5-(2-hydroxypropan-2-yl)-1,3,4-oxadiazol-2-yl)thiazole-4-carboxamide] | 11 nM | 43 nM | – | 102% | – | –
CCN(CC)C(=O)c1nc(-c2cc(C(C)(C)O)ccn2)sc1-c1ccc(S(=O)(=O)N[C@@H](C)C(F)(F)F)c(Cl)c1Cl [Example 17/1, (S)-5-(2,3-Dichloro-4-(N-(1,1,1-trifluoropropan-2-yl)sulfamoyl)phenyl)-N,N-diethyl-2-(4-(2-hydroxypropan-2-yl)pyridin-2-yl)thiazole-4-carboxamide] | 7.8 nM | 27 nM | – | – | 91% | –
C[C@H](NS(=O)(=O)c1ccc(-c2sc(-c3nnc(C4(C(F)(F)F)CC4)o3)nc2C(=O)N2CCC(F)(F)CC2)c(Cl)c1Cl)C(F)(F)F [Example 1/3, (S)-2,3-Dichloro-4-(4-(4,4-difluoropiperidine-1-carbonyl)-2-(5-(1-(trifluoromethyl)cyclopropyl)-1,3,4-oxadiazol-2-yl)thiazol-5-yl)-N-(1,1,1-trifluoropropan-2-yl)benzenesulfonamide] | 0.7 nM | 4.5 nM | – | – | – | 103%
CC[C@H](NS(=O)(=O)c1ccc(-c2sc(-c3nnc(C(C)(C)O)o3)nc2C(=O)N2CCC(F)(F)CC2)c(Cl)c1)C(F)(F)F [Example 6/12, (S)-3-Chloro-4-(4-(4,4-difluoropiperidine-1-carbonyl)-2-(5-(2-hydroxypropan-2-yl)-1,3,4-oxadiazol-2-yl)thiazol-5-yl)-N-(1,1,1-trifluorobutan-2-yl)benzenesulfonamide] | 10 nM | 55 nM | 103% | – | – | –
C[C@H](NS(=O)(=O)c1ccc(-c2sc(-c3nnc(C(C)(C)O)o3)nc2C(=O)N2CCC(F)(F)CC2)c2c1CCCO2)C(F)(F)F [Example 24, 8-(4-(4,4-Difluoropiperidine-1-carbonyl)-2-(5-(2-hydroxypropan-2-yl)-1,3,4-oxadiazol-2-yl)thiazol-5-yl)-N—((S)-1,1,1-trifluoropropan-2-yl)chroman-5-sulfonamide] | 5.2 nM | 190 nM | 97% | – | – | –
CC[C@H](NS(=O)(=O)c1ccc(-c2sc(-c3nnc(C(C)(C)O)o3)nc2C(=O)N2CCC(F)(F)CC2)c(F)c1C(F)F)C(F)(F)F [Example 6/16, (S)-2-(Difluoromethyl)-4-(4-(4,4-difluoropiperidine-1-carbonyl)-2-(5-(2-hydroxypropan-2-yl)-1,3,4-oxadiazol-2-yl)thiazol-5-yl)-3-fluoro-N-(1,1,1-trifluorobutan-2-yl)benzenesulfonamide] | 0.47 nM | 38 nM | 104% | – | – | –
